Earlier results, collected in US20220409620A1, “REDUCING IMMUNOGENICITY TO PEGLOTICASE” (Horizon Pharma Rheumatology LLC, priority 2016, published 2022).

Tested on: patients
Settings: patients treated with allopurinol; cited from earlier work

For `Oc1ncnc2[nH]ncc12` [allopurinol], the “patients developing allergic reactions” value is given as “Approximately 2%” and the severe hypersensitivity syndrome is given as “about 0.4%”.
